The record followed here is patent US11944624B2, “Peptide and small molecule agonists of EphA and their uses” (CASE WESTERN RESERVE UNIVERSITY, priority 2017, dated 2024).

In one assay the target is T1, EphA3 (Homo sapiens, UniProt P29320).
T1 construct: expressed in transfected cells; host or cells: HEK 293
T1 sequence (P29320 21-983): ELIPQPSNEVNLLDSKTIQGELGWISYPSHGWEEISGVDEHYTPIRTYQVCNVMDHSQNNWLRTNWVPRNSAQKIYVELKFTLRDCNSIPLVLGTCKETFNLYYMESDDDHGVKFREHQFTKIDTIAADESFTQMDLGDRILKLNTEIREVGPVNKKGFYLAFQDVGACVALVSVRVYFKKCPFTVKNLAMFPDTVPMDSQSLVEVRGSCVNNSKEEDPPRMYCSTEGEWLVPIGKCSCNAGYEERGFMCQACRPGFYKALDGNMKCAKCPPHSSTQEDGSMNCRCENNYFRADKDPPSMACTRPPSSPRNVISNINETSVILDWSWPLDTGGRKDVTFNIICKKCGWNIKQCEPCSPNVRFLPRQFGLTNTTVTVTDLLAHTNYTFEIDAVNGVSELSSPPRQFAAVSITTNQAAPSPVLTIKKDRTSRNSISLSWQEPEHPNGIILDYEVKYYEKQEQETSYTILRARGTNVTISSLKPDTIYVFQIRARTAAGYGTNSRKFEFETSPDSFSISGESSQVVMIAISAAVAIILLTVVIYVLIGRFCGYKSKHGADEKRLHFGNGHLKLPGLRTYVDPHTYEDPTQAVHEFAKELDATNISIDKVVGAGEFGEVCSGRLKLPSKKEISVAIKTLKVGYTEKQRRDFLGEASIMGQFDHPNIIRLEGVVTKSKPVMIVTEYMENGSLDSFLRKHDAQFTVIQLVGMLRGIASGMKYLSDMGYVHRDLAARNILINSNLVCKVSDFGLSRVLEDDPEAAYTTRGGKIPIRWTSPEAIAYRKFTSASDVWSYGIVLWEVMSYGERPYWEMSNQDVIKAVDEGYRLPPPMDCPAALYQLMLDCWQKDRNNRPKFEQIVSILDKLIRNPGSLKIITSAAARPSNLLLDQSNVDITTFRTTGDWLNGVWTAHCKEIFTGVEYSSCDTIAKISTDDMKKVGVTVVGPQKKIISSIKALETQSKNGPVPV
As to the kind of experiment: EphA3 activation in HEK 293 cells overexpressing EphA3. Format: cell-based. To be noted: HEK 293 overexpressing EphA3, compared to EphA2 and EphA4.

For assay [1], the target named is T2, EphA2 (Homo sapiens, UniProt P29317). Description: EphA2 internalization in U373-A2 cells (immunofluorescence). Format: cell-based. Details: expressed in transfected cells. To be noted: 60 min, DZ 50 μM, ephrin-A1-Fc 1 μg/ml. The protocol: (§1) Cells were plated in 24-well dishes at a density of 100,000 cells/well and grown for 24 hours prior to stimulation with appropriate compounds and ephrins for the given amounts of time. Compounds were prepared in DMSO at 500 times the final concentrations and 0.2% DMSO was used as vehicle control. Following treatment, cells were lysed directly in SDS Gel Loading Buffer and immunoblotted as described previously. Immunoprecipitation and immunofluorescence staining was performed as described. For immunoprecipitation, 300,000 cells/well were plated in 6-well dishes and lysed in modified RIPA Buffer (20 mM Tris-HCl pH 7.4, 20 mM NaF, 150 mM NaCl, 10% glycerol, 0.1% SDS, 0.5% DCA, 2 mM EDTA, 1% Triton X-100) following treatment. Either 10 μg of ephrin-A1-Fc, or […] of EphA2 mouse monoclonal antibody (Clone D7, Millipore) were used, and mouse IgG was used as a negative control for EphA2 IP.
Similar to other receptor tyrosine kinases, activation of the EphA2 receptor by its ligand, ephrin-A1, results in receptor internalization and eventual degradation. […] This was first performed using the U373 glioma cell line engineered to overexpress EphA2.

The target in assay [2] is T2, EphA2. Description: EphA2 activation in A172-A2 glioma cells. The assay is classed as cell-based. Details: expressed in transfected cells. As to the method: as §1
Activation of EphA2 receptor by ephrin-A1 ligand inhibits both ERK1/2 and Akt kinase activities in most normal cells and a subset of cancer cells. […] We first tested this by utilizing the A172 glioma cells engineered to overexpress EphA2 receptor (A172-A2).

The next assay has as its system PC-3 cells. Description: Cell rounding of PC-3 cells. The assay is classed as cell-based, human. Details: dose or concentration left out as unconfirmed. From the text:
As we first reported in 2000, EphA2 activation on PC-3 cells by ephrin-A1 induced rapid cell rounding, a phenomenon that is correlated with inhibition of integrin function.

The target in a further assay is endogenous EphA2 (Homo sapiens, UniProt P29317). As to the kind of experiment: Activation of endogenous EphA2 in PC-3 cells (pEphA/B immunoblot). The assay is classed as cell-based. Details: host or cells: PC-3. To be noted: 30 minutes. As to the method:
as §1
To determine whether the EphA2 agonist activity of doxazosin is cell-context specific, we evaluated the effects of doxazosin on additional cell types. We first utilized HEK 293 cells overexpressing EphA2 (HEK 293-A2) that we described previously. […] Next we tested PC-3 cells that express high levels of endogenous EphA2 receptor. […] We next evaluated the time-course of activation in both MDA-231-A2 and HEK 293-A2 cells upon treatment with a single 50 μM dose of doxazosin.

Each structure is given as a SMILES string.

T2 sequence (P29317 24-976): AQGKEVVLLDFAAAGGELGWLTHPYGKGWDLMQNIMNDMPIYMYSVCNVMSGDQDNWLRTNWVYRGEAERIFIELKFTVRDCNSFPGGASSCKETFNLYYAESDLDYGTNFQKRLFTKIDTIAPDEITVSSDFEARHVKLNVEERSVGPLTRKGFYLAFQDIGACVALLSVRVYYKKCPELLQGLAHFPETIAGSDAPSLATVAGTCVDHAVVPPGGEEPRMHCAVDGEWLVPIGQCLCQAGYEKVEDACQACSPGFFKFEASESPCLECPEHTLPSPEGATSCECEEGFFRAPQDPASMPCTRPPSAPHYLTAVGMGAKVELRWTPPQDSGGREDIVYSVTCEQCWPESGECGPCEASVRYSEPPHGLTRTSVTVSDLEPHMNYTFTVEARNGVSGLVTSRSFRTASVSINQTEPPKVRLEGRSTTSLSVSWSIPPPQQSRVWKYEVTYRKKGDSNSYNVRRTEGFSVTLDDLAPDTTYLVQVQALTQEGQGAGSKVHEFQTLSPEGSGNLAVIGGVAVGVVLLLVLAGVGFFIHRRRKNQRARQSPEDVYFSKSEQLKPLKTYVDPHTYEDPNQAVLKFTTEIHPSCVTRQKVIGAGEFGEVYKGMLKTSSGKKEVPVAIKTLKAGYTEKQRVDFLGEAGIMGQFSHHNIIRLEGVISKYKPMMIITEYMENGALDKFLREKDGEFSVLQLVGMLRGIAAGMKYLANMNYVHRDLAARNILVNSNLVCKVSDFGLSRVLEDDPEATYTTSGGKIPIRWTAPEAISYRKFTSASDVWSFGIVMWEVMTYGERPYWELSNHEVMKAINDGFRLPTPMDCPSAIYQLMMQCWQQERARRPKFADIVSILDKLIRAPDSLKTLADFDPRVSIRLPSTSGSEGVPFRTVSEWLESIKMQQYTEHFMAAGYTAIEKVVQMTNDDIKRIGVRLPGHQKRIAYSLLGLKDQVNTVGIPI
endogenous EphA2, sequence (P29317 24-976): as above
Experimental for EphA3: Cells were plated in 24-well dishes at a density of 100,000 cells/well and grown for 24 hours prior to stimulation with appropriate compounds and ephrins for the given amounts of time. Compounds were prepared in DMSO at 500 times the final concentrations and 0.2% DMSO was used as vehicle control. Following treatment, cells were lysed directly in SDS Gel Loading Buffer and immunoblotted as described previously. […] For immunoprecipitation, 300,000 cells/well were plated in 6-well dishes and lysed in modified RIPA Buffer (20 mM Tris-HCl pH 7.4, 20 mM NaF, 150 mM NaCl, 10% glycerol, 0.1% SDS, 0.5% DCA, 2 mM EDTA, 1% Triton X-100) following treatment. Either 10 μg of ephrin-A1-Fc, or 4 mg of EphA2 mouse monoclonal antibody (Clone D7, Millipore) were used, and mouse IgG was used as a negative control for EphA2 IP. […] For this purpose, HEK 293 cell lines overexpressing EphA1, EphA2, EphA3, EphA4, and EphB3 kinases were utilized.

Turning to `COc1cc2nc(N3CCN(C(=O)C4COc5ccccc5O4)CC3)nc(N)c2cc1OC` (stereo not drawn) [Doxazosin, 2-[4-(2,3-Dihydro-1,4-benzodioxine-2-carbonyl)piperazin-1-yl]-6,7-dimethoxyquinazolin-4-amine], the EphA3 activation result at EphA3 is “activation of EphA3 was weak”. For the same compound, at EphA2 [1], the EphA2 internalization result is reported as “stimulated significant EphA2 internalization”. Moreover, at EphA2 [2] (A172-A2 cells, 90 minutes), the “concentration at which EphA2 activation starts” value is on record as “around 25 μM”. Moreover, the EphA2 degradation entry on EphA2 [2] (A172 cells) was “degradation of EphA2 following doxazosin treatment”. Besides, the cell rounding result in the assay with PC-3 cells is “caused rounding of PC-3 cells”. In addition, the “concentration at which EphA2 activation becomes evident” value on endogenous EphA2 was found to be 50 µM.
